Patent US8039668B2, “Naphthalene-based inhibitors of anti-apoptotic proteins” (Burnham Institute for Medical Research, priority 2008, dated 2011)
Where two headings read alike, the source gives them in different places.

What was measured:
H1299 cell line = test: Cell viability, ATP-LITE assay; type: cell-based, human; conditions: Homo sapiens
Description: (§1) The activity of the compounds against human cancer cell lines (PC3ML, H460, H1299, RS11846) were assessed by using the ATP-LITE assay (PerkinElmer). All cells were seeded in either F12 or RPMI1640 medium with 5 mM L-glutamine supplemented with 5% fetal bovine serum (Mediatech Inc.), penicillin and streptomycin (Omega). For maintenance, cells were cultured in 5% FBS. Cells plated into 96 well plates at varying initial densities depending on doubling time. H460 and H1299 plated at 2000 cells/well, A549 and PC3 at 3000 cells/well, and RS118456S at 10,000 cells/well. Compounds were diluted to final concentrations with 0.1% DMSO. Prior to dispensing compounds onto cells, fresh 5% media was placed into wells. Administration of compounds occurred 24 hours after seeding into the fresh media. Cell viability was evaluated using ATP-LITE reagent (PerkinElmer) after 72 hours of treatment. Data were normalized to the DMSO control-treated cells using Prism version 5.01 (Graphpad Software).

PC3ML cells = test: Cell viability, ATP-LITE assay; type: cell-based, human; conditions: Homo sapiens, PC3-ML, ATP-LITE assay
Description: as §1

[1] = tested on: H460 human lung cell line; test: Cell viability, ATP-LITE assay; type: cell-based; conditions: Homo sapiens
Description: as §1

[2] = tested on: human lymphoma RS11846 cell line; test: Apoptosis, Annexin V-FITC and propidium iodide assay; type: cell-based; conditions: for EC50: Homo sapiens
BCL-XL = BCL-XL (Homo sapiens, UniProt Q07817); test: 1D 1H-NMR binding assay; parameters: key to 1D-^1H NMR: +++, Very Active; ++, Active; +, Mild; −, Weak; conditions: for 1D-^1H NMR: BCL-XL 25 μM, compound 200 μM; for 1D ^1H-NMR Binding Assay (BCL-XL): Table 9
Description: By observing the aliphatic region of the spectra, binding could be readily detected due to chemical shift changes in active site methyl groups of Ile, Leu, Thr, Val or Ala (region between −0.8 and 0.3 ppm). All experiments were performed with a 600 MHz spectrometer Bruker Avance 600 equipped with four rf channels and z-axis pulse-field gradients.

B6Bcl-2 transgenic mice = tested on: B6Bcl-2 transgenic mice
Description: Transgenic mice expressing BCL-2 have been described as the B6 line. The BCL-2 transgene res a minigene version of a t(14;18) translocation in which the human BCL-2 gene is fused with the immunoglobulin heavy-chain (IgH) locus and associated IgH enhancer. The transgene was propagated on the Balb/c background.
After 24 hours, B6BCL2 mice were sacrificed by intraperitoneal injection of lethal dose of Avertin. Spleen was removed and weighed. […] Spleen tissue was fixed in z-FIX for 3 days and rinsed in PBS, and saved for histological analysis of spleen (H&E staining and TUNEL assay).

[3] = NCI-H1299, read-out: EC50 H1299
[4] = read-out: EC50 RS11846, Table 3, Annexin V-FITC and propidium iodide assay
[5] = NCI-H1299, heading: EC50 H1299, Table 3, ATP-LITE assay, read-out: EC50 H1299
[6] = NCI-H1299, ATP-LITE assay, read-out: EC50 H1299
[7] = NCI-H460, ATP-LITE assay, read-out: EC50 H460
[8] = Annexin V-FITC and propidium iodide assay, read-out: EC50 RS11846
[9] = Table 3, Annexin V-FITC and propidium iodide assay, heading: EC50 RS11846, read-out: EC50 RS11846
[10] = Table 3, heading: EC50 PC3ML, read-out: EC50 PC3ML
[11] = NCI-H460, heading: EC50 H460, Table 3, ATP-LITE assay, read-out: EC50 H460

BCL-XL, sequence (Q07817 whole entry): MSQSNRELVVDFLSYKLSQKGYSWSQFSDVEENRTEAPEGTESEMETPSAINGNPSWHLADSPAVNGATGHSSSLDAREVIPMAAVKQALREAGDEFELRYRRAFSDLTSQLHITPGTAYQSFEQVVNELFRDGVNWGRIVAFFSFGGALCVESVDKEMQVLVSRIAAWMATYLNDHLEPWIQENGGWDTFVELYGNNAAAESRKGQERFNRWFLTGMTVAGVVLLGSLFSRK

`Cc1cc2c(C(=O)NCc3ccccc3)c(O)c(O)cc2c(O)c1-c1c(C)cc2c(C(=O)NCc3ccccc3)c(O)c(O)cc2c1O` [Compound 8g, N^5,N^5′-dibenzyl-1,1′,6,6′,7,7′-hexahydroxy-3,3′-dimethyl-2,2′-binaphthyl-5,5′-dicarboxamide] gave an EC50 (H1299 cell line; [3]) of 3.6 µM, an EC50 (PC3ML cells; read-out: EC50 PC3ML, Table 3) of 13.7 µM and an EC50 ([1]; NCI-H460, read-out: EC50 H460) of 4.6 µM. For the same compound, the EC50 [2, 4] was 9.3 µM and the “1D-^1H NMR” value (BCL-XL; Table 3) was “+”.
In the case of `Cc1cc2c(C(=O)Nc3ccccc3)c(O)c(O)cc2c(O)c1-c1c(C)cc2c(C(=O)Nc3ccccc3)c(O)c(O)cc2c1O` [Compound 8a, 1,1′,6,6′,7,7′-hexahydroxy-3,3′-dimethyl-N^5,N^5′-diphenyl-2,2′-binaphthyl-5,5′-dicarboxamide], the EC50 (H1299 cell line; [5]) is reported as 8 µM, the EC50 ([1]; NCI-H460, Table 3, ATP-LITE assay, heading: EC50 H460, read-out: EC50 H460) is reported as 3.5 µM and the “1D-^1H NMR” value (BCL-XL; Table 3) is reported as “+”.
Work on `Cc1cc2c(Cc3ccccc3)c(O)c(O)cc2c(O)c1-c1c(C)cc2c(Cc3ccccc3)c(O)c(O)cc2c1O` [Compound 12d, 5,5′-dibenzyl-3,3′-dimethyl-2,2′-binaphthyl-1,1′,6,6′,7,7′-hexaol] yielded an EC50 (H1299 cell line; [6]) of 1.28 µM, an EC50 (PC3ML cells; read-out: EC50 PC3ML) of 8.3 µM and an EC50 [1, 7] of 1.2 µM. The EC50 [2, 8] was 3.2 µM and the “1D-^1H NMR” value (BCL-XL; Table 4) was “+”.
With `Cc1cccc(CCNC(=O)c2c(O)c(O)cc3c(O)c(-c4c(C)cc5c(C(=O)NCCc6cccc(C)c6)c(O)c(O)cc5c4O)c(C)cc23)c1` [Compound 8o, 1,1′,6,6′, 7,7′-hexahydroxy-3,3′-dimethyl-N^5,N^5′-bis(3-methylphenethyl)-2,2′-binaphthyl-5,5′-dicarboxamide] the EC50 ([1]; NCI-H460, Table 3, ATP-LITE assay, read-out: EC50 H460) was 0.7 µM, the EC50 [2, 9] was 5.6 µM and the “1D-^1H NMR” value (BCL-XL; Table 3) was “+”.
For `Cc1cc2c(C(=O)Nc3ccc(Oc4ccccc4)cc3)c(O)c(O)cc2c(O)c1-c1c(C)cc2c(C(=O)Nc3ccc(Oc4ccccc4)cc3)c(O)c(O)cc2c1O` [Compound 8c, 1,1′,6,6′,7,7′-hexahydroxy-3,3′-dimethyl-N^5,N^5′-bis(4-phenoxyphenyl)-2,2′-binaphthyl-5,5′-dicarboxamide], the EC50 (H1299 cell line; [5]) was 17 µM, the EC50 (PC3ML cells; [10]) was 8.5 µM and the EC50 [1, 11] was 10.1 µM. The EC50 [2, 9] was 10.8 µM and the “1D-^1H NMR” value (BCL-XL; Table 3) was “+”.
With `Cc1cc2c(CC(C)C)c(O)c(O)cc2c(O)c1-c1c(C)cc2c(CC(C)C)c(O)c(O)cc2c1O` [Compound 12a, 5,5′-diisobutyl-3,3′-dimethyl-2,2′-binaphthyl-1,1′,6,6′,7,7′-hexaol] the “1D-^1H NMR” value (BCL-XL; Table 4) was “+”.
In the case of `CCC(NC(=O)c1c(O)c(O)cc2c(O)c(-c3c(C)cc4c(C(=O)NC(CC)c5ccccc5)c(O)c(O)cc4c3O)c(C)cc12)c1ccccc1` (centres unmarked) [Compound 8f, 1,1′,6,6′,7,7′-hexahydroxy-3,3′-dimethyl-N^5,N^5′-bis(1-phenylpropyl)-2,2′-binaphthyl-5,5′-dicarboxamide], the EC50 [1, 11] is reported as 1.5 µM, the EC50 [2, 9] is reported as 4.2 µM and the “1D-^1H NMR” value (BCL-XL; Table 3) is reported as “+++”.
`Cc1cc2c(C(=O)NC3CCCC3)c(O)c(O)cc2c(O)c1-c1c(C)cc2c(C(=O)NC3CCCC3)c(O)c(O)cc2c1O` [Compound 8b, N^5,N^5′-dicyclopentyl-1,1′,6,6′,7,7′-hexahydroxy-3,3′-dimethyl-2,2′-binaphthyl-5,5′-dicarboxamide] was tested, and the EC50 (H1299 cell line; [5]) was 8 µM, the EC50 (PC3ML cells; [10]) was 12.2 µM and the EC50 [1, 11] was 8.5 µM. For the same compound, the EC50 [2, 9] was 13.7 µM and the “1D-^1H NMR” value (BCL-XL; Table 3) was “+”.
`CCc1cccc(NC(=O)c2c(O)c(O)cc3c(O)c(-c4c(C)cc5c(C(=O)Nc6cccc(CC)c6)c(O)c(O)cc5c4O)c(C)cc23)c1` [Compound 8d, N^5,N^5′-bis(3-ethylphenyl)-1,1′,6,6′,7,7′-hexahydroxy-3,3′-dimethyl-2,2′-binaphthyl-5,5′-dicarboxamide] gave an EC50 (H1299 cell line; [5]) of 5 µM, an EC50 (PC3ML cells; [10]) of 8.3 µM and an EC50 [1, 11] of 4.1 µM. The EC50 [2, 9] was 4.7 µM and the “1D-^1H NMR” value (BCL-XL; Table 3) was “+”.
In the case of `Cc1cccc(CNC(=O)c2c(O)c(O)cc3c(O)c(-c4c(C)cc5c(C(=O)NCc6cccc(C)c6)c(O)c(O)cc5c4O)c(C)cc23)c1` [Compound 8h, 1,1′,6,6′,7,7′-hexahydroxy-3,3′-dimethyl-N^5,N^5′-bis(3-methylbenzyl)-2,2′-binaphthyl-5,5′-dicarboxamide], the EC50 (H1299 cell line; [5]) is reported as 3.1 µM, the EC50 (PC3ML cells; Table 3, read-out: EC50 PC3ML) is reported as 10.2 µM and the EC50 [1, 11] is reported as 2.9 µM. For the same compound, the EC50 [2, 9] was 4.8 µM and the “1D-^1H NMR” value (BCL-XL; Table 3) was “+++”.
In the case of `Cc1cc2c(C(=O)NCC3CC3)c(O)c(O)cc2c(O)c1-c1c(C)cc2c(C(=O)NCC3CC3)c(O)c(O)cc2c1O` [Compound 8l, N^5,N^5′-bis(cyclopropylmethyl)-1,1′,6,6′,7,7′-hexahydroxy-3,3′-dimethyl-2,2′-binaphthyl-5,5′-dicarboxamide], the EC50 [2, 9] is reported as greater than 10 µM and the “1D-^1H NMR” value (BCL-XL; Table 3) is reported as “+”.
With `Cc1cc2c(CCC(C)C)c(O)c(O)cc2c(O)c1-c1c(C)cc2c(CCC(C)C)c(O)c(O)cc2c1O` [Compound 12b, 5,5′-diisopentyl-3,3′-dimethyl-2,2′-binaphthyl-1,1′,6,6′,7,7′-hexaol] the “1D-^1H NMR” value (BCL-XL; Table 4) was “+”.
For `CCCCC(=O)c1c(O)c(O)cc2c(O)c(-c3c(C)cc4c(C(=O)CCCC)c(O)c(O)cc4c3O)c(C)cc12` [Compound XX, 1,1′-(1,1′,6,6′,7,7′-hexahydroxy-3,3′-dimethyl-2,2′-binaphthyl-5,5′-diyl)dipentan-1-one], the EC50 ([2]; read-out: RS11846 EC50 (Annexin V- and propidium iodide assay), Table 9) was 11.7 µM and the “1D ^1H-NMR Binding Assay (BCL-XL)” value (BCL-XL) was “+”.
Compound `Cc1cc2cc(O)c(O)cc2c(O)c1-c1c(C)cc2cc(O)c(O)cc2c1O` [Compound 13, 3,3′-dimethyl-2,2′-binaphthyl-1,1′,6,6′,7,7′-hexaol] has an EC50 (H1299 cell line; [6]) of 13.4 µM, an EC50 (PC3ML cells; read-out: EC50 PC3ML) greater than 10 µM and an EC50 [1, 7] greater than 10 µM. The Tox (B6Bcl-2 transgenic mice; Bcl-2 transgenic mouse, single ip injection 72 μmol/kg) was 0, the “activity in transgenic mice model” value (B6Bcl-2 transgenic mice; single ip 72 μmol/kg) was “no activity” and the EC50 [2, 8] was 24.5 µM. The “induction of apoptosis of the RS11846 cell line” value ([2]; in words) was “weak or no apoptosis” and the “1D-^1H NMR” value (BCL-XL; Table 4) was “−”.
In the case of `Cc1cc2c(C(=O)Nc3cccc(C(F)(F)F)c3)c(O)c(O)cc2c(O)c1-c1c(C)cc2c(C(=O)Nc3cccc(C(F)(F)F)c3)c(O)c(O)cc2c1O` [Compound 8e, 1,1′,6,6′,7,7′-hexahydroxy-3,3′-dimethyl-N^5,N^5′-bis(3-(trifluoromethyl)phenyl)-2,2′-binaphthyl-5,5′-dicarboxamide], the EC50 (H1299 cell line; [5]) is reported as 28.7 µM, the EC50 (PC3ML cells; [10]) is reported as 12.2 µM and the EC50 [1, 11] is reported as 16.7 µM. The EC50 [2, 9] was 12.6 µM and the “1D-^1H NMR” value (BCL-XL; Table 3) was “+”.
With `Cc1cc2c(C(=O)NCc3cccc(Cl)c3)c(O)c(O)cc2c(O)c1-c1c(C)cc2c(C(=O)NCc3cccc(Cl)c3)c(O)c(O)cc2c1O` [Compound 8i, N^5,N^5′-bis(3-chlorobenzyl)-1,1′,6,6′,7,7′-hexahydroxy-3,3′-dimethyl-2,2′-binaphthyl-5,5′-dicarboxamide] the EC50 (H1299 cell line; [3]) was 5.2 µM, the EC50 (PC3ML cells; read-out: EC50 PC3ML, Table 3) was 8.3 µM and the EC50 ([1]; NCI-H460, read-out: EC50 H460) was 3.3 µM. For the same compound, the EC50 [2, 4] was 7.3 µM and the “1D-^1H NMR” value (BCL-XL; Table 3) was “+++”.
For `CCC(C)C(=O)c1c(O)c(O)cc2c(O)c(-c3c(C)cc4c(C(=O)C(C)CC)c(O)c(O)cc4c3O)c(C)cc12` (centres unmarked) [Compound XIX, 1,1′-(1,1′,6,6′,7,7′-hexahydroxy-3,3′-dimethyl-2,2′-binaphthyl-5,5′-diyl)bis(2-methylbutan-1-one)], the EC50 ([2]; Table 9, read-out: RS11846 EC50 (Annexin V- and propidium iodide assay)) was 17.1 µM and the “1D ^1H-NMR Binding Assay (BCL-XL)” value (BCL-XL) was “+”.
